BindingDB's records for doi:10.1021/jm00161a009 (1986)
pIC50: −log10 of the molar value.

Biological target: T1, Carnitine palmitoyl transferase I liver isoform (Sus scrofa, UniProt Q9MYX2)
T1 sequence (Q9MYX2 whole entry): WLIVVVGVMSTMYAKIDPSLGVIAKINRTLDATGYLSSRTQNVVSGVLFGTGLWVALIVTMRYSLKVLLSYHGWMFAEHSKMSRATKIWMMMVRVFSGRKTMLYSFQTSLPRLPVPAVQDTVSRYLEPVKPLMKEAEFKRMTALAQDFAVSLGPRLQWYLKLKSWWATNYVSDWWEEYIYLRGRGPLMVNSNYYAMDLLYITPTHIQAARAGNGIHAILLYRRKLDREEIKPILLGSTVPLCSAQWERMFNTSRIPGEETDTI
Assay: ChEBML_44012
Procedure: Compound was tested for its inhibitory activity against carnitine palmitoyl transferase-A (CPT-A)

SMILES | pIC50
CCCCCCCCCCCC1(C(=O)OC)CO1 (configuration not stated) [2-Undecyl-oxirane-2-carboxylic acid methyl ester] | 5.94
CCCCCCCCCCCCCCC1(C(=O)O)CO1 (stereo not drawn) [(+/-)2-Tetradecyl-oxirane-2-carboxylic acid] | 6.05
CCCCCCC1(C(=O)OC)CO1 (configuration not stated) [2-Hexyl-oxirane-2-carboxylic acid methyl ester] | 3.87

Compounds with a higher pIC50, results first:

pIC50 | SMILES
6.52 | CCCCCCCCCCCCCCC1(C(=O)OC)CO1 (racemic) [2-Tetradecyl-oxirane-2-carboxylic acid methyl ester]
6.17 | CCCCCCCCCCC1(C(=O)OC)CO1 (configuration not stated) [2-Decyl-oxirane-2-carboxylic acid methyl ester]
6.22 | CCCCCCCCCCCCC1(C(=O)OC)CO1 (configuration not stated) [2-Dodecyl-oxirane-2-carboxylic acid methyl ester]
6.30 | CCCCCCCCCCCCCC1(C(=O)OC)CO1 (configuration not stated) [2-Tridecyl-oxirane-2-carboxylic acid methyl ester]
